Measured values reported in patent publication US12618835B2, “Multiplex microelectrode array for detection of proteases as biomarkers” (Kansas State University Research Foundation, priority 2021, dated 2026).
Where no end group is shown, it is not given here. [ ]: non-standard residue; d: D form. The star is where a group is joined. aminomethylferrocene = [Fe+2].c1cc[c-](CN*)c1.c1cc[cH-]c1; Ava = NCCCCC(=O)O

Tested on: cathepsin B in human serum
Assay: Electrochemical (ACV) proteolysis of peptide-Fc on Au MEA by diluted human serum, with and without spiked rhCB
Type: biochemical
Procedure: Electrochemical Experiments. Electrochemical experiments were performed on a specially designed electrochemical cell mounted on a large copper block for temperature control by circulating thermostatic silicone liquid through the internal channels. The thermal circulator (Julabo, Allentown, PA) was set to achieve a temperature of 38.6° C. Two buffer solutions, 0.5×PB (pH=7.4) and 25 mM MES (pH=5.0), were used. In some experiments, the rhCB was activated by incubation in 25 mM MES buffer (pH=5.0) containing 5 mM DTT for 15 min. About 10 uL activated cathepsin B solution was added to the electrochemical cell containing 815 uL buffer solution (i.e., 0.5×PB with pH=7.4) as the electrolyte. Fc signal on the Au surface was detected by alternating current voltammetry (ACV) with an AC frequency of 300 Hz and a voltage amplitude of 100 mV on a DC ramp from −0.45 V to 0.20 V vs. MSE. Electrochemical measurements were performed using an IVIUM n-Stat potentiostat (Eindhoven, The Netherlands), which allows measurement of up to ten independent working electrodes simultaneously versus a common MSE reference electrode and a common Pt coil counter electrode.
Electrochemical Detection of Cathepsin B Activity in Human Serum. To assess the activity of cathepsin B in HS, we compared the kinetic proteolysis curves of 5% HS in 0.5×PB with and without activation by the electrochemical method. The 5% HS concentration is slightly higher than the 2.5% used in ELISA measurements to ensure that a clear exponential decay can be observed in electrochemical experiments. To minimize errors, three Au MEA chips were prepared side-by-side for three sets of experiments, i.e., (i) non-activated 5% HS in 0.5×PB, (ii) activated 5% HS in 0.5×PB, and (iii) the blank 0.5×PB. […] Based on equation (2), the concentration of the active form of cathepsin B in non-activated and activated sample (equivalent to 100% HS) can be calculated by: […]
Electrochemical Assessment of Effective Cathepsin B Activity Spiked in Human Serum. […] The data were recorded over 8 channels of the peptide-Fc modified Au MEA simultaneously. […]

H2N-(CH2)4-CO-Pro-Leu-Ala-Phe-Val-Ala-NH-CH2-Fc ([Ava]PLAFVA-aminomethylferrocene) [Peptide H-15]
1/τ (activated 5% HS in 0.5×PB (DTT/MES), 8 channels): (33.2±3.0)×10^−4 s^−1 | 1/τ (non-activated 5% HS in 0.5×PB spiked with 0.40 nM naturally active cathepsin B (1.0 nM non-activated rhCB)): (12.99±1.66)×10^−4 s^−1 | 1/τ (non-activated 5% HS in 0.5×PB spiked with 1.0 nM activated cathepsin B): (68.4±7.53)×10^−4 s^−1
